Entries after “also recorded” stand apart in the source; their conditions may differ.
Legend:
[1] = test system: C. parvum (UGA1 Nluc expressing strain in HCT-8 cells); assay: microbe, parasite or virus in culture; assay type: cell-based, Cryptosporidium parvum; conditions: for EC50: Nluc C. parvum in HCT-8 cells, read-out: C. parvum EC50; for Crypto (10 uM) Mean % inhibition: initial Pathogen Box screen, single concentration 10 µM, inhibition compared to DMSO wells
Outline: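 HCT-8 monolayers grown 48 h to 90–100% confluence, treated with compound at 10 μM or serial dilutions, then infected with bleach-treated UGA1 Nluc C. parvum oocysts.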

[2] = test system: G. lamblia trophozoites (luciferase expressing, WBC6); assay: microbe, parasite or virus in culture; assay type: cell-based, Giardia lamblia; conditions: for Giardia (16 uM) Mean % inhibition: initial Pathogen Box screen, single concentration 16 µM, inhibition compared to DMSO wells; for G. lamblia EC50: luciferase expressing G. lamblia trophozoites, 24 hours, D-luciferin bioluminescence read-out
Outline: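 Luciferase-expressing WBC6 trophozoites plated at 250,000 cells/mL, compounds added 1:1, incubated anaerobically (GasPak bags) at 37 °C for 24 h; viability read by bioluminescence, with duplicate plates counted on a MOXI Z cell counter. Metronidazole control serially diluted 1:2 from 40 μM.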

Structure (SMILES)	C. parvum cell growth inhibition in the initial screen ([1]; 10 μM, 48 hours) [%]	EC50 ([1]; 48 hours) [µM]	Crypto (10 uM) Mean % inhibition [1]	Giardia (16 uM) Mean % inhibition [2]	G. lamblia EC50 [2]
CCc1c(C)nc(-n2nc(C)cc2NC(=O)c2ccccc2SC)[nH]c1=O [MMV676477]	≥ 95	0.22	96%	28%	
O=C(C1CCN(c2nnc(-n3cccc3)s2)CC1)N1CCC(Cc2ccccc2)CC1 [MMV676478]			X* (Mean or standard deviation are negative but not significantly different from the control to be a growth promoter)	9%	
COC(=O)c1c(NC(=O)c2cc3ccccc3oc2=O)sc2c1CCN(Cc1ccccc1)C2 [MMV676480]			63%	7%	
O=C(Nc1n[nH]c(=S)s1)c1cc(Br)ccc1Cl [MMV676492]			57%	X* (Mean or standard deviation are negative but not significantly different from the control to be a growth promoter)	
Cc1ccc2oc(-c3cc(NC(=O)Cc4ccccc4)ccc3Cl)nc2c1 [MMV676509]			56%	27%	
O=C(Nc1nc(-c2ccccn2)cs1)c1cncn1-c1ccccc1 [MMV676512]			93%	10%	
O=C(c1cc2ccccc2o1)N1CCN(Cc2ccc3c(c2)OCO3)CC1 [MMV676520]			51%	0.776%	
Nc1cccnc1Nc1ccc(Cl)cc1 [MMV676524]			83%	26%	
COc1ccc(-c2cc(NC(=O)c3ccc(F)cc3Cl)ccc2OC)cc1 [MMV676526]			46%	87%	
Cc1cccc(NC(=O)c2cc(S(=O)(=O)N(C)c3ccc(F)cc3)ccc2Cl)n1 [MMV676528]			80%	X* (Mean or standard deviation are negative but not significantly different from the control to be a growth promoter)	
COCC(C)NC(=O)CSc1ncnc2sc(-c3ccccc3)cc12 (stereo not drawn) [MMV676536]			X* (Mean or standard deviation are negative but not significantly different from the control to be a growth promoter)	15%	
O=C(NCCc1c[nH]c2ccccc12)c1cc2ccccc2oc1=O [MMV676539]			22%	7%	
COc1ccc(Nc2ccccc2NC(=O)c2ccc(=O)[nH]c2)cc1 [MMV676554]			61%	21%	
Cc1nnc(NCc2cccc(Cl)c2)c2ccccc12 [MMV676555]			X* (Mean or standard deviation are negative but not significantly different from the control to be a growth promoter)	X* (Mean or standard deviation are negative but not significantly different from the control to be a growth promoter)	
CC1=NN(c2nc3ccccc3s2)C(=O)C1Cc1cccc2ccccc12 (stereo not drawn) [MMV676558]			89%	42%	
COc1ccc(-c2nc(-c3cccc(NC(=O)Cc4ccc(F)cc4)c3)no2)cc1OC [MMV676571]			84%	6%	
O=C(NC1=NCCS1)c1sc2cc(F)ccc2c1Cl [MMV676584]			69%	89%	
Nc1c2c(nc3sc4c(c13)CCCC4)CCCC2 [MMV676588]			48%	26%	
O=C(CCC1CCCCC1)Nc1cccc(-c2nnc(-c3ccco3)o2)c1 [MMV676589]			42%	40%	
CCCn1nnc(NC(=O)COc2ccc(C3CCCCC3)cc2)n1 [MMV676597]			60%	31%	
CC(C)(C)n1nc(Cc2cccc3ccccc23)c2c(N)ncnc21 [MMV676599]			86%	21%	
CO[C@@H](C(=O)N1Cc2[nH]nc(NC(=O)c3ccc(N4CCN(C)CC4)cc3)c2C1)c1ccccc1 [MMV676600]			76%	6%	
CNC(=O)c1nn(C)c2c1C(C)(C)Cc1cnc(Nc3ccc(N4CCN(C)CC4)cc3)nc1-2 [MMV676602]		0.31	85%	94%	not effective; also recorded: not potent
C[C@H]1COC2(CCN(c3nc(=O)c4cc(C(F)(F)F)cc([N+](=O)[O-])c4s3)CC2)O1 [MMV676603]			X* (Mean or standard deviation are negative but not significantly different from the control to be a growth promoter)	77%	

Structure (SMILES)	C. parvum cell growth inhibition in the initial screen ([1]; 10 μM, 48 hours) [%]	EC50 ([1]; 48 hours) [µM]	Crypto (10 uM) Mean % inhibition [1]	Giardia (16 uM) Mean % inhibition [2]	G. lamblia EC50 [2]
Cc1ncc(-c2ccnc(Nc3ccc(S(C)(=O)=O)cc3)n2)n1C(C)C [MMV676604]		2.9	92%	92%	not effective; also recorded: not potent
CC1(O)CC(c2nc(-c3ccc4ccc(-c5ccccc5)nc4c3)c3c(N)nccn23)C1 (stereo not drawn) [MMV676605]			X* (Mean or standard deviation are negative but not significantly different from the control to be a growth promoter)	15%	
O=C(c1ccc(NCCO)cc1)C1C[C@H]1c1ccc(Cl)cc1 (stereo partly drawn) [MMV676877]			70%	8%	
CCn1cnc2c(Nc3cc(F)cc(F)c3)nc(C#N)nc21 [MMV676881]			53%	9%	
NC(=O)c1cc(-c2ccsc2)ccc1OCCOc1ccccc1 [MMV687138]			X* (Mean or standard deviation are negative but not significantly different from the control to be a growth promoter)	X* (Mean or standard deviation are negative but not significantly different from the control to be a growth promoter)	
CCCCS(=O)(=O)Nc1ccc2cnn(C)c2c1 [MMV687145]			32%	56%	
Cc1cc(C)c2cc(C(=O)NC3CCCCCCC3)[nH]c2c1 [MMV687146]			33%	15%	
COc1ccc(Cn2cnc3c(-c4ccco4)nc(Cl)nc32)cc1 [MMV687170]			77%	40%	
O=C(C1CCN(c2cc(-n3cccc3)ncn2)CC1)N1CCc2ccccc2C1 [MMV687172]			48%	X* (Mean or standard deviation are negative but not significantly different from the control to be a growth promoter)	
CCc1ccc([C@@H]2C[C@H](C(F)(F)F)n3ncc(C(=O)NCc4ccc(OC)cc4)c3N2)cc1 [MMV687180]			X* (Mean or standard deviation are negative but not significantly different from the control to be a growth promoter)	23%	
COc1ccc2nc(C)cc(OCC(=O)Nc3ccccc3OC)c2c1 [MMV687188]			38%	28%	
COc1ccc2nc(C)cc(OCC(=O)NCc3ccccc3)c2c1 [MMV687189]			23%	16%	
CC(C)(C(=O)Nc1ccc(F)cc1)n1cc(-c2ccccc2F)cn1 [MMV687239]			59%	39%	
NC(=O)c1cc(Br)ccc1OCCOc1ccccc1 [MMV687243]			77%	66%	
CN1CCN(S(=O)(=O)c2ccc(-c3ccc4c(Nc5ccc6n[nH]nc6c5)ccnc4c3)cc2)CC1 [MMV687246]			X* (Mean or standard deviation are negative but not significantly different from the control to be a growth promoter)	30%	
Nc1nc2cc(-c3cncc(Oc4ccc(F)cc4)c3)ccc2[nH]1 [MMV687248]			72%	22%	
Cn1c(=O)c2c(S(C)(=O)=O)snc2n(C)c1=O [MMV687251]			76%	7.44%	
CCCCc1ccc(C(=O)Nc2nccc3ccccc23)nc1 [MMV687254]			77%	X* (Mean or standard deviation are negative but not significantly different from the control to be a growth promoter)	
CC(C)=CCC/C(C)=C\CNCCNC1C2CC3CC(C2)CC1C3 (stereo not drawn) [MMV687273]			35%	89%	
CCc1nc2ccc(Cl)cn2c1C(=O)NCc1ccc(N2CCC(c3ccc(OC(F)(F)F)cc3)CC2)cc1 [MMV687696]			21%	26%	
O=C(NCc1cc(Cl)cc(Cl)c1)c1c(C(F)(F)F)nc2ccccn12 [MMV687699]			32%	16%	
Nc1ncnc2c1ncn2[C@@H]1O[C@H](COS(=O)(=O)NC(=O)c2ccccc2O)[C@@H](O)[C@H]1O [MMV687700]			X* (Mean or standard deviation are negative but not significantly different from the control to be a growth promoter)	15%	
COc1cccc(-c2nc3c(N4CCCC4)cccc3n2CC2CCCN2)n1 (stereo not drawn) [MMV687703]			77%	26%	
c1ccc(Oc2ccc(-c3cc(N4CCNCC4)[nH]n3)cc2)cc1 [MMV687706]			X* (Mean or standard deviation are negative but not significantly different from the control to be a growth promoter)	30%	
